Assay results taken from patent US20090104119A1, “Dendrimer Based Compositions And Methods Of Using The Same” (priority 2004, published 2009).

Legend:
KB cells [1] = test: Inhibition of cell growth by XTT assay; format: cell-based, human; conditions: 1, 2 or 3 days
Experimental: Cell culture and treatment.
Evaluation of dendrimer cytotoxicity.
Because the binding of the conjugate to KB cells reaches maximal uptake within 1 h (Quintana et al, 2002. Pharmaceutical Research 19: 1310-1316.), the effect of the G5-FI-FA-MTX on cell growth was initially tested by pre-incubation of cells with the conjugate for 1 h, followed by incubation in a drug-free medium for 5 d. […] When the cells were pre-incubated with dendrimers for 4 h, there was a modest decrease of about 10% in cell growth as determined by XTT assay. The cytotoxicity measurements were therefore done by incubation with the dendrimer for a minimum of 24 h, a pre-incubation time period shown to induce significant cytotoxicity.
The inhibition of cell growth induced by the conjugates was also tested by XTT assay which is based on the conversion of XTT to formazan by the active mitochondria of live cells (See, e.g., Roehm et al, J Immunol Methods 142, 257 (1991)).
As free FA blocks the uptake of the dendrimers as well as rescues cells from MTX-induced cytotoxicity, the effect of pre-incubation of cells with excess FA on the anti-proliferative effect of G5-FITC-FA-MTX was tested. KB cells were exposed to different concentrations of the conjugate or free MTX for 24 h in the absence or presence of 50 μM FA. The incubation medium was removed, the cells were rinsed and incubated with fresh medium for 5 additional days in the absence of the drugs, and the XTT assay was performed (See, e.g., FIG. 24, □, ▪, represents cells treated with MTX; Δ, ▴, represents cells treated with G5-FITC-FA-MTX).
The anti-proliferative effect of the MTX-conjugates was compared to conjugates that lacked either the FA or the FITC molecule. KB cells were incubated with 30 nM of the conjugates (=150 nM effective MTX concentration) for 24 h and the incubation medium was removed. The cells were rinsed and incubated for an additional 5 d in fresh medium in the absence of the drugs, and the XTT assay was performed.

KB cells [2] = test: Inhibition of cell growth by total cell protein
Experimental: Cell culture and treatment. KB cells were maintained in folate-free medium containing 10% serum (See, e.g., Quintana et al, Pharm. Res. 19, 1310 (2002)) to provide extracellular FA similar to that found in human serum. Cells were plated in 12-well plates for uptake studies, in 24-well plates for cell growth analysis, and in 96-well plates for XTT assay. Cells were rinsed with FA-free medium containing dialyzed serum and incubated at 37° C. with dendrimer-drug conjugates for the indicated time periods and concentrations. KB cells were also maintained in RPMI medium containing 2 μM FA to obtain cells which express low FAR.
Evaluation of dendrimer cytotoxicity. Cell growth was determined by assay of the total protein in lysates of treated cells using a bicinchoninic acid reagent (PIERCE, and by XTT assay, using a kit from Roche.
Time course and dose dependent inhibition of cell growth. Previous studies have shown that MTX-induced cytotoxicity is detectable in vitro only if the medium is completely deprived of FA (See, e.g., Sobrero & Bertino, Int. J. Cell Cloning 4, 51 (1986)). The effect of the trifunctional dendrimers on cell growth was tested in cells incubated in a FA-deficient medium. Cells were treated with 300 nM conjugates (equivalent of 1500 nM MTX) or 1500 nM free MTX for 1-4 days, and cell proliferation was determined by estimation of cellular protein content. Cells were treated for 2 days with different concentrations of the conjugates or free MTX (the conjugate concentration is given as MTX equivalents, with 5 MTX per dendrimer molecule). KB cells which express high and low FAR were incubated with 30 nM of the dendrimers for 1 hr at 37° C., rinsed, and the fluorescence of cells was determined by flow cytometric analysis (See. e.g., FIG. 21, left panel).
KB cells were treated with 150 or 500 nM MTX in the presence or absence of equimolar concentrations of free FA for 24 h. […] The cells were rinsed to remove the drugs and incubated with fresh medium for an additional 6 d, and total cell protein was determined.

[3] = Toxicity of dendrimer conjugates and free methotrexate in mice (body weight, histopathology); format: in vivo
Experimental: (§1) Delivery of targeted nanoparticle therapeutic. Twice weekly, SCID mice with s.c. KB xenografts, starting on day 4 after tumor implantation, received via the tail vein an injection of either targeted or nontargeted conjugate containing methotrexate, a conjugate without methotrexate, free methotrexate, or saline as a control. The compounds were delivered in a 0.2 mL volume of saline per 20 g of mouse. The single dose of methotrexate delivered each time equaled 0.33 mg/kg. The higher doses of 1.67 and 3.33 mg/kg free methotrexate were also tested. The conjugates were delivered at equimolar concentration of methotrexate calculated based on the number of methotrexate molecules present in a nanoparticle. The conjugate without methotrexate was delivered at equimolar concentration of dendrimer. In the initial trial, six groups of mice with five mice in each group received up to 15 injections. In the follow-up trial, mice received up to 28 injections dependent on their survival. The body weights of the mice were monitored throughout the experiment as an indication of adverse effects of the drug. Histopathology of multiple organs was done at the termination of each trial and each time mouse had to be euthanized due to toxic effects or tumor burden. Tissues from lung, heart, liver, pancreas, spleen, kidney, and tumor were analyzed. Additionally, cells were isolated from tumors, stained with targeted fluorescein-labeled conjugate, and tested for the presence of folic acid receptors using flow cytometer.
Toxicity of dendrimer conjugates. […] No gross toxicity, either acutely or chronically up to 99 days, was observed regardless of whether the dendrimer conjugate contained methotrexate. The weight was monitored throughout the experiment and no loss of weight was observed; in fact, the animals gained weight. At each time point, a gross examination and histopathology of the liver, spleen, kidney, lung, and heart were done. No morphologic abnormalities were observed on the histopathology examination.
The remaining experimental groups had very uniform body weight fluctuations nonindicative of toxicity when compared with control groups with saline or conjugate without methotrexate.

s.c. human KB xenografts = test: Targeted drug delivery, tumor growth and survival in SCID mice with KB xenografts; format: in vivo, SCID CB-17 mice; conditions: for effect on tumor growth: first trial
Experimental: Recipient animal and tumor model.
as §1
Targeted drug delivery to tumor cells through the folate receptor. The efficacy of different doses of conjugates was tested on SCID CB-17 mice bearing s.c. human KB xenografts and was compared with equivalent and higher doses of free methotrexate. Mice were maintained on the folic acid-deficient diet for 3 weeks before injection of the KB tumor cells to achieve circulating levels of folic acid that approach those in human serum and to prevent down-regulation of folate receptors on tumor xenografts (See, Mathias et al., J Nucl Med 29, 1579 (1998)). Six groups of SCID mice with five mice in each group were injected s.c. on one flank with 5×10^6 KB cells in 0.2 mL PBS suspension. The highest total dose of G5-FI-FA-MTX therapeutic used equals 55.0 mg/kg and is equivalent to a 5.0 mg/kg total cumulative dose of free methotrexate (FIG. 29). The therapeutic dose of the conjugate was compared with three cumulative doses of free methotrexate equivalent to 33.3, 21.7, and 5.0 mg/kg accumulated in 10 to 15 injections based on mouse survival. Saline and the conjugate without methotrexate (G5-FI-FA) were used as controls.

KB tumor = test: Biodistribution of fluorescent dendrimer conjugates in tumor (confocal microscopy, flow cytometry); format: in vivo, mice; conditions: single-cell suspension from tumors, versus nontargeted
Experimental: Biodistribution of fluorescent dendrimer conjugates. […] Flow cytometry analysis was done with single-cell suspension isolated from tumor. Tumor was crushed, cell suspension filtered through 70 μm nylon mesh (Becton Dickinson, Franklin Lakes, N.J.), and washed with in PBS. Samples were analyzed using an EPICS XL flow cytometer (Coulter, Miami, Fla.). As determined by prior propidium iodine staining, only live cells were gated for analysis. Data were reported as the mean channel fluorescence of the cell population.
For confocal microscope imaging, tissue was dissected, embedded in OCT, and frozen in 2-methyl-butane in a dry ice bath. Sections (15 μm) were cut on a cryostat, thaw mounted onto slides, and stored at −80° C. until stained. After staining, the slides were fixed in 4% paraformaldehyde, rinsed in phosphate buffer (0.1 mol/L; pH 7.2), and mounted in Prolong. The images were acquired using a Zeiss 510 metalaser scanning confocal microscope equipped with a ×40 Plan-Apo 1.2 numerical aperture (water immersion) objective with a correction collar. The confocal image was recorded as 512×512×48 pixels with a scale of 0.45×0.45×0.37 μm per pixel. Each image cube was optically cut into 48 sections, and the sections that cut through the nucleus and cytoplasm were presented.
Targeting and internalization of fluorescent dendrimer conjugate. […]

Row | Compound | inhibition of cell growth, XTT (KB cells [1]) | inhibition of cell growth (FIGS. 21 and 22) (KB cells [2]; FA-deficient medium, 1-4 days, different concentrations) | growth inhibition, free MTX versus equimolar MTX in G5-FITC-FA-MTX (KB cells [2]; below 1 μM) | time at which doses became lethal ([3]; cumulative doses 33.3 and 21.7 mg/kg) | histopathology of the liver ([3]; mouse, in vivo) | toxicity ([3]; total accumulated dose equivalent to 5.0 mg/kg free methotrexate) | effect on tumor growth (s.c. human KB xenografts; up to 15 injections, cumulative 5.0 mg/kg methotrexate equivalents or equimolar dendrimer) | effect on tumor growth (s.c. human KB xenografts; cumulative 33.3 and 21.7 mg/kg) | day by which all mice died (s.c. human KB xenografts; second 99-day trial) | survivors at the termination of the trial (s.c. human KB xenografts; second 99-day trial) | mean channel fluorescence of tumor cells, flow cytometry (KB tumor)
1 | CN(Cc1cnc2nc(N)nc(N)c2n1)c1ccc(C(=O)N[C@@H](CCC(=O)O)C(=O)O)cc1 [MTX, Methotrexate, reference compound] | time-dependent cytotoxicity | inhibited cell growth in a time- and dose-dependent fashion | higher | 32 to 36 days | advanced liver lesions, collections of inflammatory cells, and periportal inflammation | nor free methotrexate at the same dose were toxic | no effect on tumor growth | affecting tumor growth | ≤ 66 days | no mice surviving | –
2 | G5-(Ac)82-(6-TAMRA)3-(FA)4 [G5-6T-FA] | – | – | – | – | – | – | – | – | – | – | higher
